Results published in patent publication US7205127B2 (priority 2002, dated 2007).

Legend:
differentiated L6 cells = test: 2-deoxy-glucose transport (glucose uptake) assay in differentiated L6 myotubes; type: cell-based, rat
Procedure: Rat skeletal muscle L6-K cells were grown in minimal essential medium (α-MEM Glutamax I) containing 10% fetal bovine serum at 37° C., 5% CO2. The cells were passaged twice weekly by treatment with trypsin-EDTA and transfer of ⅓ of the cells to new flasks with fresh culture medium. For differentiation into myotubes, 30,000 cells were seeded in 1 ml in 24-well plates. When the cells were confluent, usually after 3 days, the medium was replaced by differentiation medium consisting of α-MEM, 2% fetal bovine serum and penicillin/streptomycin at a concentration of 100 U/ml and 100 μg/ml, respectively. The medium was replaced every 2–3 days. Between days 4–7, differentiation medium containing 1 mM cytidine was used. The cells were differentiated for 8–10 days before being used in experiments.
On the day before the glucose transport assay, the wells of the culture plate were emptied and 1 ml serum free DMEM containing 5 mM glucose and penicillin/streptomycin was added. In some experiments the cells were treated over night with test compounds in 1 ml and additional treatments were added the next day to give a total volume of 2 ml. In these experiments, insulin (100–1000 nM) was added in 0.2 ml. When all treatments were performed after 20–24 h in serum free medium, a total volume of 1 ml was used. The wells were emptied and 0.5 ml prewarmed PBS without Ca^2+/mg^2+ containing 1 μCi/ml radioactive 2-deoxy-glucose added. After 10 min at 37° C., the wells were emptied and washed three times with cold PBS. The cell monolayer was solubilized in 0.5 ml 0.5 M NaOH for 3 h at room temperature. 400 μl was mixed with 8 ml scintillation fluid (Optiphase, Wallac) and counted in a scintillation counter (Packard TriCarb). Two 10-μl aliquots were used for determination of protein concentration using the method according to Bradford (Anal. Biochem., 1976, 72:248–54) from BioRad.
This effect is seen when cells are stimulated with 0.1–10 μM DPI for 1 h. A bell-shaped dose response curve for DPI with an optimum at 1 μM is recorded. The effect of suboptimal concentrations of DPI during a 1 h treatment could be stimulated further if insulin is added 30 min after DPI. However, insulin has little additional effect when the maximum effect of DPI is reached in the 1 h protocol (FIG. 1). The effective concentrations at which DPI stimulates glucose transport corresponds well to the concentrations inhibiting NAD(P)H oxidase activity in cell free systems [O'Donnell et al., Biochemical Journal, 290:41–9 (1993)]. […] On the basis of the above results it is postulated that DPI enhances a constitutive activity of the insulin receptor and/or the intracellular insulin-signaling pathway.
Assuming that the enhancing effect of DPI on insulin signaling was due to inhibition of ROS production, it was investigated whether an exogenous source of H2O2 could counteract the effect of DPI. To this end, L6 cells were treated with 25 mU/ml of glucose oxidase for 30 min before addition of DPI.

C57BL/6J ob/ob mice = conditions: 1 mg/kg i.p. once daily for 4 days
Procedure: Studies were conducted in vivo, in an animal model of obesity characterized by insulin resistance. Eight-month old C57BL/6J ob/ob mice (M&B A/S, Denmark) were matched for sex, weight and fasting blood glucose concentrations. The animals were injected intraperitoneally once daily with DPI (1 mg/kg) or water for 4 days. On day 5, the animals were fasted for 2.5 h and then given an i.p. injection of human insulin 0.5 U/kg (Actrapid, Novo Nordisk, Denmark) and their blood glucose levels were monitored for 4 h by sampling from the tail. The glucose concentration was determined using a Glucometer Accutrend Sensor (Roche).

[1] = system: thioredoxin-gp91phox fusion protein; conditions: in the presence of NAD(P)H and FAD; cited from earlier work
NAD(P)H oxidase = target: T1, NAD(P)H oxidase (Homo sapiens, UniProt P19878); conditions: most likely via binding to p67phox; cited from earlier work
T1 sequence (P19878 1-526): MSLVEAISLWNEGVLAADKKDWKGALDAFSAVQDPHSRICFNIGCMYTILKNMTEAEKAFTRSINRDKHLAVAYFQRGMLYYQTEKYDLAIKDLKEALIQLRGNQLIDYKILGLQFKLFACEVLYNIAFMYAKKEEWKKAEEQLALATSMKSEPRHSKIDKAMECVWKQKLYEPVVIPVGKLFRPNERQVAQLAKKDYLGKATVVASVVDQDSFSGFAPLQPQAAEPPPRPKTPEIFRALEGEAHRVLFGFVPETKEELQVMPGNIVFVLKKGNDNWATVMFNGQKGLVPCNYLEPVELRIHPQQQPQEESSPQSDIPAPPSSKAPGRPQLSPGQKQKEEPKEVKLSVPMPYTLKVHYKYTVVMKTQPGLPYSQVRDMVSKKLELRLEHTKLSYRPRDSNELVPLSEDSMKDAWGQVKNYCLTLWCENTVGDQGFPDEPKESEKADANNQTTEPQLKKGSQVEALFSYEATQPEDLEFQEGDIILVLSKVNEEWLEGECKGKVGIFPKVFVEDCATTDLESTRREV

## insulin: bovine insulin purchased from Sigma, used to stimulate glucose transport
Differentiated L6 cells; L6 cells treated with 25 mU/ml glucose oxidase, 200 nM insulin (FIG. 2)
  reduction of insulin stimulated glucose transport by glucose oxidase: 65%

## c1ccc2c(c1)[I+]c1ccccc1-2 [DPI, Diphenylene iodonium]
Differentiated L6 cells; 1 h treatment
  optimum of bell-shaped dose response curve for glucose uptake: 1 µM
Differentiated L6 cells; L6 cells treated with 25 mU/ml glucose oxidase for 30 min before addition of DPI (FIG. 2)
  reduction of stimulatory effect on glucose transport by glucose oxidase: 68%
Differentiated L6 cells; cells stimulated for 1 h
  concentrations at which the increase in glucose uptake is seen: 0.1 to 10 µM
Differentiated L6 cells; differentiated L6 cells incubated with DPI for 1 h (FIG. 1)
  glucose uptake: significant increase
C57BL/6J ob/ob mice; ob/ob mice
  side effects of treatment: Without any overt side effects
C57BL/6J ob/ob mice; 1–4 h after injection of insulin 0.5 U/kg (FIG. 3)
  blood glucose levels versus control group: significantly lower blood glucose levels
[1]
  diaphorase activity of thioredoxin-gp91phox fusion protein: inhibited

## Mastoparan
NAD(P)H oxidase
  NAD(P)H oxidase activation: inhibit NAD(P)H oxidase activation
